Like-named read-outs stand apart in the source and are kept apart here.
Assays:
PGE2 = PGE2 in rat paw exudates; assay type: in vivo; conditions: for PGE2 levels in the paw exudate versus vehicle (FIG. 2B): P<0.01, four rats in each group
Experimental: Rats were euthanized by asphyxiation in a CO2 chamber. […] The absorbance at 412 nm was measured after 1 h incubation at room temperature. […] Proteins were determined by Biorad assay.
Proteins were determined by Biorad assay.

[1] = tested on: carrageenan-induced paw edema; test: Carrageenan-induced rat paw edema; assay type: in vivo; conditions: for paw volume versus vehicle treated rats (FIG. 2A): P<0.05, four rats in each group; for anti-inflammatory effect on paw swelling compared with parent NSAID: equimolar oral doses (Example 12)
Experimental: Carrageenan (1%, 100 μL, suspended in sterile saline solution, type IV lamda; Sigma-Aldrich) was subcutaneously injected into the plantar surface of the right hind paw in rat following the protocol described by Winter et al., Proceedings of the Society for Experimental Biology and Medicine 1962, 111:544-547. Paw volume was measured using a water displacement plethysmometer (model 520; IITC/Life Sciences Instruments, Woodland Hills, Calif.) before carrageenan injection and thereafter at 1-h intervals for 6 h. The paw volume measured just before carrageenan injection was used as the control volume. Data are expressed as the change in paw volume (milliliters) at each time point.
Carrageenan, type IV lambda (1%, 100 μL suspended in sterile saline solution), from Sigma Chemicals (St. Louis, Mo.) was subcutaneously injected into the plantar surface of the right hind paw in rat following the protocol described by Winter et al., Proceedings of the Society for Experimental Biology and Medicine 1962, 111:544-547. Paw volume was measured using a water displacement plethysmometer (Model 520, IITC/Life Sciences Instruments, Woodland Hills, Calif.) before carrageenan injection and thereafter at 1 hour intervals for 5 hours. The paw volume measured just prior to carrageenan injection was used as the control volume. Data are expressed as the change in paw volume (mL) at each time point.

HT-29 cells xenograft = test: HT-29 tumor xenograft in athymic nude mice; assay type: in vivo, mouse
Experimental: Male athymic nude (NU/NU) mice (N=8), age 5 weeks, were purchased from Charles River Laboratories, Inc., (Wilmington, Mass.). HT-29 cells (2×10^6) suspended in 50% v/v Matrigel (BD Biosciences, San Jose, Calif.) were inoculated subcutaneously in the right flanks of each mouse. When the tumors reached an average sizes of ˜80 mm^3, the mice were randomly divided (N=4/group) and gavaged daily for 18 days with either vehicle (1% methylcelloluse) or NOSH-1 (100 mg/kg body weight). Tumor size (length and width) was measured at 3 day intervals with an electronic caliper from which tumor volume was calculated as length×width^2/2. The mice were weighed every 3 days and were closely monitored for signs of toxicity.

LPS-induced fever = test: Anti-pyretic activity, LPS-induced fever; assay type: in vivo, rat; conditions: 2-4 hours after LPS injection
Experimental: To induce fever, LPS (50 μg/kg, Sigma, St. Louis, Mo., USA) was administered intraperitoneally to the animals an hour before the administration of test drugs as described previously (Pinto L et al., Pharm Pharmacol Communication 1988: 4:502-505). Rectal temperature was measured by inserting a lubricated thermistor probe (external diameter: 3 mm) 2.8 cm into the rectum of the animal. […] Rectal temperatures were taken every hour for 5 hours.

TNF-α = test: Plasma TNF-α enzyme immunoassay; assay type: in vivo, rat; conditions: for plasma TNF-α (FIG. 3): P<0.01 vs vehicle, P<0.01 vs ASA; for plasma TNFα concentration: rats, equimolar oral doses: ASA 180 (1 mmol/kg), NOSH-ASA 477, naproxen 80, NOSH-naproxen 188, sulindac 200, NOSH-sulindac 467 mg/kg, control 11±0.3
Experimental: Fresh samples of blood from the animals were taken by cardiac puncture into heparin-containing vials. The determination of plasma TNF-α was carried out by an enzyme immunoassay kit from R&D systems (Minneapolis, Minn.). Briefly, each sample (50 μL) was incubated with antibodies specific for rat TNF-α and washed three times with assay buffer. An enzyme-linked polyclonal antibody specific for rat TNF-α conjugated to horseradish peroxidase was then added to the wells. Following washing of unbound antibody-enzyme reagent, a substrate solution (containing tetramethylbenzidine, TMB, plus hydrogen peroxide) was added to the wells. The enzyme reaction yielded a blue product (oxidized TMB) that turned yellow when the stop solution (dilute hydrochloride acid) was added. The intensity of the color was determined by measuring the OD of the yellow color in a standard ELISA plate reader at 450 nm. Sensitivity of this TNF-α assay was determined by adding two standard deviations to the mean optical density value of 20× zero standard replicates and calculating the corresponding concentration. The kit contains all reagents and standards needed for the TNF-α sensitivity assay. The results are expressed as pg/mL.
This was done by an enzyme immunoassay kit from R&D systems (Minneapolis, Minn.) following the protocol described by the manufacturer. Briefly, fresh blood (50 μL) was incubated with antibodies specific for rat TNF-α and washed three times with assay buffer. An enzyme-linked polyclonal antibody specific for rat TNF-α conjugated to horseradish peroxidase was then added to the wells. Following washing of unbound antibody-enzyme reagent, a substrate solution (containing tetramethylbenzidine, TMB, plus hydrogen peroxide) was added to the wells. The enzyme reaction yielded a blue product (oxidized TMB) that turned yellow when the stop solution (dilute hydrochloride acid) was added. The intensity of this was measured at 450 nm. Sensitivity of this TNF-α assay was determined by adding two standard deviations to the mean optical density value of 20× zero standard replicates and calculating the corresponding concentration.

[2] = tested on: HT-29 human colon cancer cells; test: MTT cell growth inhibition, HT-29; assay type: cell-based; conditions: HT-29 cells; for IC50: Homo sapiens
HT-29 colon cancer cells [3] = test: Apoptosis, Annexin V staining and flow cytometry; assay type: cell-based, human
Experimental: (§1) Growth inhibition was measured using a colorimetric MTT assay kit (Roche, Indianapolis, Ind.). Proliferation (PCNA) was assessed using an ELISA kit from Calbiochem, (La Jolla, Calif.). Cell cycle phase distributions and apoptosis of control and treated cells were determined as previously described. All methods are described in Chattopadhyay et al., Biochemical Pharmacology, 2012, 83(6), 715-722.

HT-29 colon cancer cells [4] = test: Cell cycle analysis, PI staining and flow cytometry; assay type: cell-based, human
Experimental: as §1

## O=C(CCCO[N+](=O)[O-])Oc1ccccc1C(=O)Oc1ccc(-c2cc(=S)ss2)cc1 [NOSH-1, 4-(3-thioxo-3H-1,2-dithiol-5-yl)phenyl 2-((4-(nitrooxy)butanoyl)oxy)benzoate]
PGE2; NOSH-1 0.21 mmol/kg
  PGE2 levels in paw exudate: 42 ± 3 pg/mg
PGE2; NOSH-1 0.52 mmol/kg
  PGE2 levels in paw exudate: 21 ± 4 pg/mg
PGE2
  PGE2 levels in the paw exudate versus vehicle (FIG. 2B): significant reduction in PGE2 levels
[1]
  paw volume versus vehicle treated rats (FIG. 2A): significant reduction in paw volume at all time points
[1]; high dose NOSH-1 0.52 mmol/kg, after 1-2 hours
  change in paw volume ΔV: 0.45 mL
[1]; high dose NOSH-1 0.52 mmol/kg, over the next 4 hours (to 6 h)
  change in paw volume ΔV: 0.35 mL
[1]; low dose NOSH-1 0.21 mmol/kg, after 1 hour
  change in paw volume ΔV: 0.5 mL
[1]; low dose NOSH-1 0.21 mmol/kg, by 3 hours
  change in paw volume ΔV: 0.6 mL
[1]; low dose NOSH-1 0.21 mmol/kg, over the next 3 hours (to 6 h)
  change in paw volume ΔV: ~0.4 mL
HT-29 cells xenograft; 100 mg/kg daily for 18 days
  signs of toxicity: no overt signs of toxicity
HT-29 cells xenograft; 100 mg/kg daily for 18 days, vs control
  mean reduction of tumor volume: 85%
HT-29 cells xenograft; 100 mg/kg daily gavage for 18 days, control 2300±200
  mean tumor volume: 350±35 mm^3
HT-29 cells xenograft; 6 days after treatment to sacrifice, P<0.05 day 6, P<0.01 days 9-18
  tumor volume versus vehicle (FIG. 7B): significantly reduced tumor volume
HT-29 cells xenograft; treated mice, 100 mg/kg daily
  average weight of the mice, beginning of the study: 21.7 ± 0.82 g
HT-29 cells xenograft; treated mice, 100 mg/kg daily for 18 days
  average weight of the mice, end of the study: 27.2 ± 1.1 g
LPS-induced fever
  reduction of LPS-induced fever compared with parent NSAID: appeared to be better in reducing LPS-induced fever
TNF-α; NOSH-1 0.21 mmol/kg
  plasma TNF-α concentration: 55 ± 2 pg/mL
TNF-α; NOSH-1 0.52 mmol/kg
  plasma TNF-α concentration: 40 ± 3 pg/mL
TNF-α
  plasma TNF-α (FIG. 3): significantly less
  plasma TNFα concentration: 75 ± 1 pg/mL
[2]; 48 h
  Potency enhancement (ratio of IC50 values ASA/NOSH-1), 48 h: ~125,000 fold
[2]; 72 h
  Potency enhancement (ratio of IC50 values ASA/NOSH-1), 72 h: ~250,000 fold
[2]; 48 h, read-out: IC50, 48 h
  IC50: 1.97e-05 ± 3.3e-06 mM
[2]; 72 h, read-out: IC50, 72 h
  IC50: 7.7e-06 ± 2.2e-06 mM
HT-29 colon cancer cells [3]; 0.5×IC50, 24 hours
  cells in early apoptotic phase: 24.7±1.4%
HT-29 colon cancer cells [3]; 1×IC50, 24 hours
  cells in early apoptotic phase: 32.8±2.1%
HT-29 colon cancer cells [3]; 2×IC50, 24 hours
  cells in early apoptotic phase: 55.9±3.3%
HT-29 colon cancer cells [4]; 1×IC50, 24 hours, control 26.9±2.2
  cell population in G2/M phase: 15.4±2.6%
HT-29 colon cancer cells [4]; 1×IC50, 24 hours, control 30.2±2.3%
  cell population in S phase: 22.6±1.3%
HT-29 colon cancer cells [4]; 1×IC50, 24 hours, control 42.9±2%
  cell population in G0/G1 phase: 62.0±2.3%
HT-29 colon cancer cells [4]; 2×IC50, 24 hours
  cell population in G0/G1 phase: 74.2±1.2%
  cell population in G2/M phase: 9.5±1.8%
  cell population in S phase: 16.3±1.2

## CC(=O)Oc1ccccc1C(=O)O [ASA, aspirin, reference compound]
PGE2
  PGE2 levels in the paw exudate versus vehicle (FIG. 2B): significant reduction in PGE2 levels
PGE2; aspirin 0.21 mmol/kg, control 82±2 pg/mg
  PGE2 levels in paw exudate: 12±3 pg/mg protein
[1]; ASA 0.56 mmol/kg, after 6 hours
  change in paw volume ΔV: ~0.35 mL
[1]; ASA 0.56 mmol/kg, at 1 hour
  change in paw volume ΔV: 0.4 mL
[1]; ASA 0.56 mmol/kg, over the next 2 hours (after 1 h)
  change in paw volume ΔV: ~0.35 mL
[1]
  paw volume versus vehicle treated rats (FIG. 2A): significant reduction in paw volume at all time points
TNF-α; ASA 0.56 mmol/kg
  increase of plasma TNF-α concentration over control: about 20 fold
TNF-α; ASA 0.56 mmol/kg, control 10±1
  plasma TNF-α concentration: 200 ± 10 pg/mL
TNF-α; ASA 1 mmol/kg
  increase of plasma TNFα concentration over control: about 20 fold
TNF-α
  plasma TNF-α (FIG. 3): significant rise
  plasma TNFα concentration: 190 ± 5 pg/mL
[2]; 48 h, read-out: IC50, 48 h
  IC50: 2.5 mM
[2]; 72 h, read-out: IC50, 72 h
  IC50: 2 mM

## CC1=C(CC(=O)O)c2cc(F)ccc2/C1=C\c1ccc([S+](C)[O-])cc1 (stereo not shown) [sulindac, reference compound]
TNF-α
  plasma TNFα concentration: 230 ± 5 pg/mL

## CC1=C(CC(=O)Oc2ccc(OC(=O)CCCO[N+](=O)[O-])c(C(=O)Oc3ccc(-c4cc(=S)ss4)cc3)c2)c2cc(F)ccc2/C1=C/c1ccc([S+](C)[O-])cc1 (stereo not shown) [NOSH-8, (E)-4-(3-thioxo-3H-1,2-dithiol-5-yl)phenyl 5-(2-(5-fluoro-2-methyl-1-(4-(methylsulfinyl)benzylidene)-1H-inden-3-yl)acetoxy)-2-((4-(nitrooxy)butanoyl)oxy)benzoate]
[1]
  anti-inflammatory effect on paw swelling compared with parent NSAID: the same anti-inflammatory response as sulindac
TNF-α
  plasma TNFα concentration: 50 ± 3 pg/mL

## CC(C(=O)Oc1ccc(-c2cc(=S)ss2)cc1)c1ccc2cc(OC(=O)CCCO[N+](=O)[O-])ccc2c1 (stereo not shown) [NOSH-7, 6-(1-oxo-1-(4-(3-thioxo-3H-1,2-dithiol-5-yl)phenoxy)propan-2-yl)naphthalen-2-yl 4-(nitrooxy)butanoate]
[1]
  anti-inflammatory effect on paw swelling compared with parent NSAID: even lower inflammatory response compared to naproxen
LPS-induced fever
  reduction of LPS-induced fever compared with parent NSAID: appeared to be better in reducing LPS-induced fever
TNF-α
  plasma TNFα concentration: 48 ± 2 pg/mL

Source: US10450260B2, “NO- and H2S-releasing compounds” (RESEARCH FOUNDATION OF THE CITY UNIVERSITY OF NEW YORK, priority 2011, dated 2019)
